Legend:
Assay type in all cases: in vivo
[1] = Oral absorption in dogs: plasma level by HPLC, AUC; details: equimolar amount, in 0.5% aqueous methylcellulose solution, area under plasma level vs time curve
Method: (§1) The compound of Synthesis Example 1, the compound of Example 7, and the compound of Example 20 were suspended or dissolved in a 0.5% aqueous methylcellulose solution. The resultant solutions were orally administered in an equimolar amount to dogs and rats. After the administration, the amount of each compound contained in plasma of each animal individual was quantitatively determined by HPLC. The absorption in each specimen was assayed by the area under a medicament level of plasma vs time curve (AUC). As a result, AUCs obtained by the compounds of Examples 7 and 20 as prodrugs were 3 to 4 times higher for the dog and 3 to 7 times higher for the rat compared with the compound of Synthesis Example 1 as an activator body.

[2] = Oral absorption in rats: plasma level by HPLC, AUC; details: equimolar amount, in 0.5% aqueous methylcellulose solution, area under plasma level vs time curve
Method: as §1

ICR male mice = ICR male mice (5 weeks old), dose of 2 g/kg, suspension in 0.5% aqueous methylcellulose solution
From the text: Acute Toxicity Test by Single Administration
The compound of Example 20 was homogeneously suspended in a 0.5% aqueous methylcellulose solution. The suspension was forcibly orally administered to ICR male mice (5 weeks old).

COc1cc2[nH]c(=O)c3nn[nH]c3c(=O)c2cc1OC [Synthesis Example 1, 7,8-Dimethoxy-4(5H),10-dioxo-1H-1,2,3-triazolo[4,5-c][1]benzazepine, reference compound]
AUC Dog [1]: 0.3 ± 0.1 µM·h | AUC Rat [2]: 0.2 ± 0.1 µM·h

COc1cc2[nH]c(=O)c3nn(COC(=O)OC(C)C)nc3c(=O)c2cc1OC [Example 7, 2-(Isopropoxycarbonyloxymethyl)-7,8-dimethoxy-4(5H),10-dioxo-2H-1,2,3-triazolo[4,5-c][1]benzazepine]
AUC Dog [1]: 0.9 ± 0.1 µM·h | AUC Rat [2]: 0.6 ± 0.1 µM·h

COc1cc2[nH]c(=O)c3nn(C(OC(=O)OC(C)C)C(C)C)nc3c(=O)c2cc1OC (stereo not shown) [Example 20, 2-(1-Isopropoxycarbonyloxy-2-methylpropyl)-7,8-dimethoxy-4(5H),10-dioxo-2H-1,2,3-triazolo[4,5-c][1]benzazepine]
AUC Dog [1]: 1.2 ± 0.3 µM·h | Survival and abnormality after single forced oral administration (ICR male mice): all the mice survived and developed no abnormality | AUC Rat [2]: 1.4 ± 0.1 µM·h

— patent US7238812B2, “Tricyclic triazolobenzazepine derivatives, process for producing the same, and antiallergic agents” (Meji Seika Kaisha, Ltd., priority 1997, dated 2007)
